Data as given in US12668600B2 (Kumquat Biosciences Inc., priority 2023, dated 2026).

Experiments:
Format in all cases: biochemical
KRAS G12D = target: T1, KRAS G12D (Homo sapiens, UniProt P01116, G12D); experiment: HTRF KRAS-SOS1 interaction assay, KRAS G12D; conditions: binned ≤2 μM / >2 μM, read-out: Inhibition of KRAS G12D (IC50)
T1 construct: made in house; host or cells: E. coli, e.g. BL21 (DE3)
In short: (§1)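 Read-out: HTRF ratio 665/620 nm after ≥10 min incubation of compound with GST-KRAS/anti-GST-Eu and His-hSOS1/anti-6His-XL665. Duplicate dose series, 10 μM down to 0.01 μM. Buffer HEPES pH 7.4, NaCl, DTT, BSA, Igepal.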

KRAS G12S = target: T2, KRAS G12S (Homo sapiens, UniProt P01116, G12S); experiment: HTRF KRAS-SOS1 interaction assay, KRAS G12S; conditions: binned ≤2 μM / >2 μM, read-out: Inhibition of KRAS G12S (IC50)
T2 construct: made in house; host or cells: E. coli, e.g. BL21 (DE3)
In short: as §1

KRAS G12V = target: T3, KRAS G12V (Homo sapiens, UniProt P01116, G12V); experiment: HTRF KRAS-SOS1 interaction assay, KRAS G12V; conditions: binned ≤2 μM / >2 μM, read-out: Inhibition of KRAS G12V (IC50)
T3 construct: made in house; host or cells: E. coli, e.g. BL21 (DE3)
In short: as §1

KRAS WT = target: T4, KRAS WT (Homo sapiens, UniProt P01116); experiment: HTRF KRAS-SOS1 interaction assay, wildtype KRAS; conditions: binned ≤2 μM / >2 μM, read-out: Inhibition of KRAS WT (IC50)
T4 construct: made in house; host or cells: E. coli, e.g. BL21 (DE3)
In short: as §1

T4 sequence (P01116 1-188 isoform P01116-2): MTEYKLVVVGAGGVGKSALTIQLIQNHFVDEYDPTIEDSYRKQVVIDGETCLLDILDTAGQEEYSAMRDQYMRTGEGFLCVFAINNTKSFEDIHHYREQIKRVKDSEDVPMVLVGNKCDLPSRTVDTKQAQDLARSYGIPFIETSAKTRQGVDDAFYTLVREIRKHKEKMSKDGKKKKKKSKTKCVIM
T2 sequence (P01116 1-188 isoform P01116-2 G12S): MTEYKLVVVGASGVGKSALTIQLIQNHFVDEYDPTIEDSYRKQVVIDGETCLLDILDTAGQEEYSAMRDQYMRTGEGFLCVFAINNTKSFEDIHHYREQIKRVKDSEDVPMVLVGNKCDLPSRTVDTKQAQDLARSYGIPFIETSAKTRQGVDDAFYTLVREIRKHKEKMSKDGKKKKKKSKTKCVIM
T1 sequence (P01116 1-188 isoform P01116-2 G12D): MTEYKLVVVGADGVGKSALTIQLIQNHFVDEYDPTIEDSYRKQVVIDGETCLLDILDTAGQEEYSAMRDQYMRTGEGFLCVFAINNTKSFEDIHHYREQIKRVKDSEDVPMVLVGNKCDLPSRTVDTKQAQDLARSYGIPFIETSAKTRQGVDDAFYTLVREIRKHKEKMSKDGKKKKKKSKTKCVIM
T3 sequence (P01116 1-188 isoform P01116-2 G12V): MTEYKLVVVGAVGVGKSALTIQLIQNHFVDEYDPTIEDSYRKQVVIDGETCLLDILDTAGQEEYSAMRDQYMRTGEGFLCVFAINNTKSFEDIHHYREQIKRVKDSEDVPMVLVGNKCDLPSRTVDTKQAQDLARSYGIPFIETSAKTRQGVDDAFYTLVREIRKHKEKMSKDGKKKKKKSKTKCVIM

Compound	IC50 (KRAS G12D) [µM]	IC50 (KRAS G12S) [µM]	IC50 (KRAS G12V) [µM]	IC50 (KRAS WT) [µM]
C[C@H](c1cccnc1N)N1c2nc(OC[C@@]34CCCN3C[C@H](F)C4)nc3c(F)c(-c4ccc(F)c5sc(N)c(C#N)c45)c(Cl)c(c23)OC[C@@H]1C [Compound 800, 2-amino-4-((5S)-4-((R)-1-(2-aminopyridin-3-yl)ethyl)-8-chloro-10-fluoro-2-(((2R,7aS)-2-fluorotetrahydro-1H-pyrrolizin-7a(5H)-yl)methoxy)-5-methyl-5,6-dihydro-4H-[1,4]oxazepino[5,6,7-de]quinazolin-9-yl)-7-fluorobenzo[b]thiophene-3-carbonitrile]	≤ 2	≤ 2	≤ 2	≤ 2
C[C@H](c1cccnc1N)N1CCOc2nc(-c3ccc(F)c4sc(N)c(C#N)c34)c(F)c3nc(OC[C@@H]4CCCN4C)nc1c23 (single isomer, unassigned) [Compound 651]	≤ 2	≤ 2	≤ 2	≤ 2
C[C@@H]1CN(CC2(COc3nc4c5c(c(C(F)(F)F)c(-c6ccc(F)c7sc(N)c(C#N)c67)c(F)c5n3)OCCN4[C@H](C)c3cccnc3N)CC2)CCO1 (single isomer, unassigned) [Compound 812]	≤ 2	≤ 2	≤ 2	≤ 2
C[C@H](c1cccnc1N)N1CCOc2c(C(F)(F)F)c(-c3ccc(F)c4sc(N)c(C#N)c34)c(F)c3nc(OCC4(CN5CCC(=C(F)F)CC5)CC4)nc1c23 (single isomer, unassigned) [Compound 884]	> 2	> 2	> 2	> 2
N#Cc1c(N)sc2c(F)ccc(-c3c(C(F)(F)F)c4c5c(nc(OC[C@@]67CCCN6C[C@H](F)C7)nc5c3F)N([C@H](CCC(F)(F)F)c3cccnc3N)CCO4)c12 (atropisomer, axis not shown; (aS)) [Compound 614, 2-amino-4-((S)-4-((R)-1-(2-aminopyridin-3-yl)-4,4,4-trifluorobutyl)-10-fluoro-2-(((2R,7aS)-2-fluorotetrahydro-1H-pyrrolizin-7a (5H)-yl)methoxy)-8-(trifluoromethyl)-5,6-dihydro-4H-[1,4]oxazepino[5,6,7-de]quinazolin-9-yl)-7-fluorobenzo[b]thiophene-3-carbonitrile]	≤ 2	≤ 2	≤ 2	≤ 2
N#Cc1c(N)sc2c(F)ccc(-c3c(C(F)(F)F)c4c5c(nc(OC[C@@]67CCCN6C[C@H](F)C7)nc5c3F)N([C@H](CCC3CCC3)c3cccnc3N)CCO4)c12 (single isomer, unassigned) [Compound 631]	> 2	≤ 2	≤ 2	> 2
N#Cc1c(N)sc2c(F)ccc(-c3c(C(F)(F)F)c4c5c(nc(OC[C@@]67CCCN6C[C@H](F)C7)nc5c3F)N([C@H](CC3CCC3)c3cccnc3N)CCO4)c12 (single isomer, unassigned) [Compound 893]	≤ 2	≤ 2	≤ 2	≤ 2
C[C@H](c1cccnc1N)N1CCOc2c(C(F)(F)F)c(-c3ccc(F)c4sc(N)c(C#N)c34)c(F)c3nc(OCC4(CN5CCC(=CF)CC5)CC4)nc1c23 [Compound 814, 2-amino-4-(4-((R)-1-(2-aminopyridin-3-yl)ethyl)-10-fluoro-2-((1-((4-(fluoromethylene)piperidin-1-yl)methyl)cyclopropyl)methoxy)-8-(trifluoromethyl)-5,6-dihydro-4H-[1,4]oxazepino[5,6,7-de]quinazolin-9-yl)-7-fluorobenzo[b]thiophene-3-carbonitrile]	≤ 2	≤ 2	≤ 2	≤ 2
N#Cc1c(N)sc2c(F)ccc(-c3c(C(F)(F)F)c4c5c(nc(OC[C@@]67CCCN6[C@H](COc6nccnc6C(F)F)CC7)nc5c3F)N([C@@H](c3cccnc3N)C(F)F)CCO4)c12 (single isomer, unassigned) [Compound 605]	≤ 2	≤ 2	≤ 2	≤ 2
CNc1sc2c(F)ccc(-c3c(C(F)(F)F)c4c5c(nc(OC[C@@]67CCCN6C[C@H](F)C7)nc5c3F)N([C@H](CCC3CCOCC3)c3cccnc3N)CCO4)c2c1C#N [Compound 709, 4-(4-((R)-1-(2-aminopyridin-3-yl)-3-(tetrahydro-2H-pyran-4-yl)propyl)-10-fluoro-2-(((2R,7aS)-2-fluorotetrahydro-1H-pyrrolizin-7a(5H)-yl)methoxy)-8-(trifluoromethyl)-5,6-dihydro-4H-[1,4]oxazepino[5,6,7-de]quinazolin-9-yl)-7-fluoro-2-(methylamino)benzo[b]thiophene-3-carbonitrile]	≤ 2	≤ 2	≤ 2	≤ 2
C[C@@H]1CN(CC2(COc3nc4c5c(c(C(F)(F)F)c(-c6ccc(F)c7sc(N)c(C#N)c67)c(F)c5n3)OCCN4[C@H](C)c3cccnc3N)CC2)C[C@H](C)O1 [Compound 710, 2-amino-4-(4-((R)-1-(2-aminopyridin-3-yl)ethyl)-2-((1-(((2S,6R)-2,6-dimethylmorpholino)methyl)cyclopropyl)methoxy)-10-fluoro-8-(trifluoromethyl)-5,6-dihydro-4H-[1,4]oxazepino[5,6,7-de]quinazolin-9-yl)-7-fluorobenzo[b]thiophene-3-carbonitrile]	> 2	≤ 2	≤ 2	≤ 2
Cc1c(F)c(N)cc(-c2nc3c4c(nc(O[C@@H](C)[C@@H]5CCCN5C)nc4c2F)N([C@H](C)c2cccnc2N)C[C@H](C)O3)c1C(F)(F)F (single isomer, unassigned) [Compound 816]	≤ 2	≤ 2	≤ 2	≤ 2
N#Cc1c(N)sc2c(F)ccc(-c3c(C(F)(F)F)c4c5c(nc(OC[C@@]67CCCN6CC(=C(F)F)C7)nc5c3F)N([C@H](CCC3CCOCC3)c3cccnc3N)CCO4)c12 [Compound 808, 2-amino-4-(4-((R)-1-(2-aminopyridin-3-yl)-3-(tetrahydro-2H-pyran-4-yl)propyl)-2-(((S)-2-(difluoromethylene)tetrahydro-1H-pyrrolizin-7a(5H)-yl)methoxy)-10-fluoro-8-(trifluoromethyl)-5,6-dihydro-4H-[1,4]oxazepino[5,6,7-de]quinazolin-9-yl)-7-fluorobenzo[b]thiophene-3-carbonitrile]	≤ 2	≤ 2	≤ 2	≤ 2
C[C@H](c1cccnc1N)N1CCOc2c(Cl)c(-c3ccc(F)c4sc(N)c(C#N)c34)c(F)c3nc(OCC45CCCC4CCC5)nc1c23 (single isomer, unassigned) [Compound 674]	> 2	> 2	> 2	> 2
C[C@H](c1cc(Cl)cnc1N)N1CCOc2c(C(F)(F)F)c(-c3ccc(F)c4sc(N)c(C#N)c34)c(F)c3nc(OCC4(CN5CCC(=CF)CC5)CC4)nc1c23 [Compound 819, 2-amino-4-(4-((R)-1-(2-amino-5-chloropyridin-3-yl)ethyl)-10-fluoro-2-((1-((4-(fluoromethylene)piperidin-1-yl)methyl)cyclopropyl)methoxy)-8-(trifluoromethyl)-5,6-dihydro-4H-[1,4]oxazepino[5,6,7-de]quinazolin-9-yl)-7-fluorobenzo[b]thiophene-3-carbonitrile]	≤ 2	≤ 2	≤ 2	≤ 2
N#Cc1c(N)sc2c(F)ccc(-c3c(Cl)c4c5c(nc(OC[C@@]67CCCN6C[C@H](F)C7)nc5c3F)N(C(/C=C/C(F)(F)F)c3cccnc3N)CCO4)c12 (mixture of isomers) [Compound 828, 2-amino-4-(4-((E)-1-(2-aminopyridin-3-yl)-4,4,4-trifluorobut-2-en-1-yl)-8-chloro-10-fluoro-2-(((2R,7aS)-2-fluorotetrahydro-1H-pyrrolizin-7a(5H)-yl)methoxy)-5,6-dihydro-4H-[1,4]oxazepino[5,6,7-de]quinazolin-9-yl)-7-fluorobenzo[b]thiophene-3-carbonitrile]	≤ 2	≤ 2	≤ 2	≤ 2
C[C@H](c1cccnc1N)N1CCOc2c(Cl)c(-c3ccc(F)c4sc(N)c(C#N)c34)c(F)c3nc(OC[C@@]45CCCN4C[C@H](F)C5)nc1c23 [Compound 850, 2-amino-4-(4-(1-(2-aminopyridin-3-yl)ethyl)-8-chloro-10-fluoro-2-(((2R,7aS)-2-fluorotetrahydro-1H-pyrrolizin-7a (5H)-yl)methoxy)-5,6-dihydro-4H-[1,4]oxazepino[5,6,7-de]quinazolin-9-yl)-7-fluorobenzo[b]thiophene-3-carbonitrile]	≤ 2	≤ 2	≤ 2	≤ 2
C=C1CN2CC(=C)CC2(COc2nc3c4c(c(C(F)(F)F)c(-c5ccc(F)c6sc(N)c(C#N)c56)c(F)c4n2)OCCN3[C@H](C)c2cncnc2N)C1 (single isomer, unassigned) [Compound 707]	≤ 2	≤ 2	≤ 2	≤ 2
